Results: BindingDB's records for patent US11529321 (Wigen Biomedicine Technology (Shanghai), 2022)

Biological target: Microtubule-associated proteins 1A/1B light chain 3B (Homo sapiens, UniProt Q9GZQ8)
Assay: Molecular Level Experiments of Targeting LC3B

IC50 | SMILES
in the range around 9 µM | O=C1CC(c2ccccc2)CC(=O)C1=CNCCN1CCN(C(=S)Nc2cccc(Cl)c2)CC1 (stereo not drawn) [US11529321, Compound 31]
in the range around 9 µM | C=CCNC(=S)N1CCN(CCNC=C2C(=O)CC(c3ccco3)CC2=O)CC1 (stereo not drawn) [US11529321, Compound 39]
in the range around 9 µM | CCCCCC(=O)N1CCN(CCNC=C2C(=O)CC(c3ccco3)CC2=O)CC1 (stereo not drawn) [US11529321, Compound 58]
